pIC50: −log10 of the molar value. Bridge positions count the residues as written; N and C are the ends. Ends that are not written are not given here. Peptide text beside a SMILES is read from it.
Key:
[1] = target: T1, binding of TSP-1 protein to CD36, a TSP-1 receptor protein (Homo sapiens, UniProt P07996); assay: ELISA: blocking of CD36 binding to TSP-1 protein; conditions: for inhibition at 100 µM: 3 h, read-out: Blocking rate (Mean, %); for inhibition at 100 µM / Blocking rate (Mean, %): 100 μM polypeptide, 0.25 μg/mL Fc-tagged CD36, blocking of CD36 binding to TSP-1
T1 construct: purchased novoprotein (TSP-1); R&D Systems (Fc-tagged CD36) CU45 (TSP-1); 1955-CD-050 (CD36-Fc)
Method: ELISA assay was performed to detect the ability of the polypeptides to block the binding of TSP-1 protein to CD36, a TSP-1 receptor protein. TSP-1 protein (novoprotein, Catalog No. CU45) was diluted to 2 μg/mL using 100 mM carbonate buffer and added to sample wells (100 μL/well) of a 96-well ELISA plate (Thermo, Catalog No. 437111), and incubated overnight at 4° C.; after washing the plate twice using 1×PBST wash solution, 200 μL of 1.5% BSA (Sigma, Catalog No. B2064) was added to each well, and incubated at 37° C. for 2 h; after washing the plate 3 times using 1×PBST wash solution, the analytes were added (100 μL/well, 3 replicate wells; for the control group, 0.25 μg/mL of Fc-tagged CD36 protein (R&D Systems, Catalog No. 1955-CD-050); and for the polypeptide-treated groups, a mixture containing Fc-tagged CD36 protein and polypeptide at final concentrations of 0.25 μg/mL and 100 μM, respectively), and incubated at 37° C. for 3 h. After washing the plate 5 times using 1×PBST wash solution, a 1:500 dilution solution of FITC-labeled anti-Fc-tagged antibody (Beyotime, Catalog No. A0556) was added, and incubated for 1 h at 37° C.; after washing the plate 5 times using 1×PBST wash solution, a multifunctional ELISA instrument (TECAN, model: Infinite 200 Pro) was used to detect the intensity of FITC fluorescence signal in each sample well. The ability of the polypeptides to block CD36 binding to TSP-1 protein (Table 2-1) was assessed by calculating the ratio of the fluorescence signal from the polypeptide-treated groups to that of the control group, allowing for the determination of the blocking rate of the polypeptides in inhibiting CD36 binding to TSP-1 protein, i.e., (fluorescence signal of the control group-fluorescence signal of the polypeptide-treated group)/fluorescence signal of the control group×100%. Based on the blocking rate results obtained at the single concentration and on the polypeptide molecule properties, the preferred polypeptide molecules were assayed for concentration dependence (at 0 μM, 0.5 μM, 1 μM, 5 μM, 10 μM, and 100 μM), and IC50 values of the polypeptides for blocking CD36 binding to TSP-1 protein were determined to further assess the abilities of the preferred polypeptide molecules to block the binding of CD36 to TSP-1 (Table 2-2).

[2] = test system: TSP-1-dependent TGF-β activation; assay: TSP-1-dependent TGF-β activation in PMA-differentiated THP-1 cells with 293-TGFβ Res reporter cells; assay type: cell-based; conditions: 100 μM polypeptide, 24 h; ratio to negative control group (1.00)
Method: In this Example, the inhibitory effects of the polypeptides on TSP-1-dependent TGF-β activation were detected using a model based on a high TSP-1 expressing cell. In the assay, THP-1 cells (American Typical Culture Collection, ATCC, TIB-20) were induced by phorbol ester (Phorbol 12-myristate 13-acetate, PMA) (Sigma, Catalog No. P1585) and differentiated into macrophage-like cells with distinct macrophage expression profiles.
The experiment was performed as follows: THP-1 cells were inoculated in a 96-well plate, and treated with 300 nM PMA for differentiation and adherence to form macrophage-like cells. 100 μM polypeptide was added (For the negative control group, an equal volume of PBS (the solvent for the polypeptide) was added, while the positive control group received an equal concentration of the polypeptide shown in SEQ ID NO: 50.) The cells were treated for 24 hours, and then a 293 reporter cell strain, 293-TGFβ Res cell strain (novoprotein, Catalog No. XCC03-1), was added for detecting TGF-β activity, and co-cultivated for 24 hours. Bio-Lite Luciferase Assay lysate comprising fluorescent substrate (Vazyme, Catalog No. DD1201-01) was added, and the fluorescent intensity was detected using a multifunctional microplate reader (TECAN, model Infinite 200 Pro). The inhibitory effect of the polypeptide on TGF-β activation was assessed by calculating the ratio of the fluorescence signal from the polypeptide-treated groups to that of the negative control group.

active TGF-β = assay: Active TGF-β level in lung tissue, bleomycin (BLM) mouse lung fibrosis model; assay type: in vivo; conditions: single intratracheal dose 3 mg/kg on Day 7, lung 24 h later, BLM model group = 100.00
Description: This Example was to evaluate the inhibitory effect of polypeptides on active TGF-β level during the progression of fibrotic disease. In this Example, a mouse lung fibrosis model induced by bleomycin (BLM) was used. The BLM animal model offers advantages, including a close mimicry of the pathological features of the primary disease, ease of use, and good reproducibility. It is the most representative model for studying the mechanisms of fibrosis and is recommended for evaluating drug efficacy.
In this Example, 6 to 8-week-old male C57/6J mice weighing 18-20 g were used as subjects for the study. The experimental animals were randomized into groups, 8 animals in each group, and the expressions of pro-fibrotic factors were detected at the endpoint of the experiment (Day 8) in this model. In this example, an aerosol intratracheal metered dosing applicator (Yuyan, model YAN30012) was utilized for intratracheal administration during the modeling and drug delivery processes. The dosing was performed as follows (An Official American Thoracic Society Workshop Report: Use of Animal Models for the Preclinical Assessment of Potential Therapies for Pulmonary Fibrosis, Am J Respir Cell Mol Biol Vol 56, Iss 5, pp 667-679, May 2017): The experimental animals were anesthetized with aerosolized isoflurane (RWD, lot no. 22041701) using a small animal anesthesia machine (RWD, model R500IE). Animals in the appropriate anesthetic state were positioned supine with heads facing up and bodies tilted on an operating platform (tilted at approximately) 60°, secured by their incisors. The practitioner gently lifted the tongue with tissue forceps in the right hand, pushing it outward and upward to open the animal's lower jaw. Holding the laryngoscope (Yuyan, model SR310-RW) in the left hand, the practitioner slid its anterior leaf-shaped blade along the midline of the tongue into the oral cavity until reaching the glottis, gently pressing the body and root of the tongue upward. The needle of the drug applicator was then inserted through the mouth into the glottis alongside the laryngoscope, and 50 μL of liquid was quickly injected. On the day of modeling (Day 1), the experimental animals were randomly assigned to groups and administered a 0.7 USP/kg dose of bleomycin solution (HanHui Pharmaceutical, Batch No. 20080511) via the tracheal route to induce the model. On Day 7, each peptide-treated group received a single intratracheal dose of 50 μL peptide drug (at a dosage of 3 mg/kg), while the model group was given an equal volume of solvent (saline, Kelong, Batch No. L221062501) as a control. Twenty-four hours after drug administration, the animals were dissected to collect lung tissue, which was ground in liquid nitrogen to extract total protein from the lung tissue. The active TGF-β content in the lung tissue of mice from each group was measured using the TGF-β ELISA kit (BOSTER, catalog number EK0515). The ratio of active TGF-β content between the peptide-treated group and the model group was calculated to evaluate the effect of the peptide on active TGF-β level.

P-Smad2/3 = P-Smad2/3 content in lung tissue, BLM mouse fibrosis model; assay type: in vivo; conditions: single intratracheal dose 3 mg/kg on Day 7, lung 24 h later, BLM model group = 100.00
Description: This example aimed to evaluate the inhibitory effect of polypeptides on the TGF-β downstream signaling pathway during fibrosis progression. TGF-β intracellular signaling relies on the phosphorylation events of Smad family proteins. The increase in Smad2/3 phosphorylation levels is an important indicator that signal transduction has occurred in the TGF-β signaling pathway.
In this example, 6- to 8-week-old male C57/6J mice weighing 18-20 g were used as subjects for the study. The experimental animals were randomized into groups, eight animals in each group. In this example, intratracheal administration was performed using an aerosol intratracheal metered dosing applicator during both the modeling and drug delivery processes, as described in Example 4. On the day of modeling (Day 1), the experimental animals were randomly assigned to groups and administered a 0.7 USP/kg dose of bleomycin solution (HanHui Pharmaceutical, Batch No. 20080511) via the tracheal route to induce the model. On Day 7, each peptide-treated group received a single intratracheal dose of peptide drug at a dosage of 3 mg/kg, while the BLM model group was given an equal volume of solvent (saline) as a control. Twenty-four hours after drug administration, the animals were dissected, and the lung tissues were collected and frozen in liquid nitrogen for future use. Total protein from the lung tissue was extracted after grinding the tissue in liquid nitrogen, and the total P-Smad2/3 content in the tissue was measured by using P-Smad2/3 ELISA kit (CST, Catalog No. 12001C). The ratio of the P-Smad2/3 content between the peptide-treated group and the model group was calculated to evaluate the effect of the peptide on TGFβ signaling.

T1 sequence (P07996 19-1170): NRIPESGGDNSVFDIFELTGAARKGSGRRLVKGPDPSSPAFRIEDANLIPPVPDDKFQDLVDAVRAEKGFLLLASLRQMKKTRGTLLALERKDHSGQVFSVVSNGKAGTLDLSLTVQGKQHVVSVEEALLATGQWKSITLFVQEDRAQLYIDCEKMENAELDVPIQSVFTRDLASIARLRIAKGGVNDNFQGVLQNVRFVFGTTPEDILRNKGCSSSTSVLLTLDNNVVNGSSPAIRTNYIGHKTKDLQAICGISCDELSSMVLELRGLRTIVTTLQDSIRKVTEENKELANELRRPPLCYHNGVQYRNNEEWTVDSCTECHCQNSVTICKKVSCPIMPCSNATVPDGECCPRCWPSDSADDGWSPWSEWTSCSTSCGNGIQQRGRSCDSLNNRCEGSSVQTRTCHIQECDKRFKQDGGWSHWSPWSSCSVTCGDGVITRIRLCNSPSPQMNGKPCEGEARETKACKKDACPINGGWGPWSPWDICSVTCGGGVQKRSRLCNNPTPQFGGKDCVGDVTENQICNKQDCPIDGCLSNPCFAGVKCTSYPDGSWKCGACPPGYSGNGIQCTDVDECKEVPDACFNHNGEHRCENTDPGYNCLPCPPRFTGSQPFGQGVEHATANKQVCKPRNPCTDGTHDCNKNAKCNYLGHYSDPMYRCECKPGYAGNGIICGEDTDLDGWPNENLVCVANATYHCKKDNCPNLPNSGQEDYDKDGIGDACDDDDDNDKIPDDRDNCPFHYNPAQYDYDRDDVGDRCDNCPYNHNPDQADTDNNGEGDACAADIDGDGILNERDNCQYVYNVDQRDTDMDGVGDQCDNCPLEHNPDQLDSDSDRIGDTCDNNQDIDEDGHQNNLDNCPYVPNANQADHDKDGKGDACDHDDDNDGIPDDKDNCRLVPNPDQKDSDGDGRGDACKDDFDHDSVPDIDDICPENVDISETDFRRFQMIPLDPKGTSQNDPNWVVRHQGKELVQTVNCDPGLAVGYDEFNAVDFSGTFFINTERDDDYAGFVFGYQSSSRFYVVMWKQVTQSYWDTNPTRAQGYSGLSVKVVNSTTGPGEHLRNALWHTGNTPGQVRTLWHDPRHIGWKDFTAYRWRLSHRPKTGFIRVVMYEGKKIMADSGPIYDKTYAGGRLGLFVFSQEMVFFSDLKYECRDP

Compound	inhibition at 100 µM [1] [%]	Mean (relative fluorescence intensity) [2]	active TGF-β content in lung tissue, ratio to model group, Mean(%) (active TGF-β)	P-Smad2/3 content in lung tissue, ratio to model group, Mean(%) (P-Smad2/3)	active TGF-β content in lung tissue, ratio to model group, Mean(%) (active TGF-β; 3 mg/kg)	P-Smad2/3 content in lung tissue, ratio to model group, Mean(%) (P-Smad2/3; 3 mg/kg)	Blocking rate (Mean, %) [1] [%]	pIC50 ([1]; concentrations 0-100 μM)
Ac-TQDPEDN-NH2 [SEQ ID NO: 14, Ac-Thr-Gln-Asp-Pro-Glu-Asp-Asn-NH2]	27.9	0.70	92.49	87.39	–	–	–	–
C[C@@H]1NC(=O)[C@H](CC(=O)O)NC(=O)[C@H](CCC(N)=O)NC(=O)[C@H]([C@@H](C)O)NC(=O)[C@H](CC(N)=O)NC(=O)[C@H](CC(=O)O)NC(=O)[C@H](CCC(=O)O)NC1=O [SEQ ID NO: 45, cyclo[Gln-Asp-Ala-Glu-Asp-Asn-Thr]] (cyclo(AEDNTQD))	–	0.52	–	–	81.10	82.42	–	–
Ac-TQDAEDNTVSFLQ-NH2 [SEQ ID NO: 36, Ac-Thr-Gln-Asp-Ala-Glu-Asp-Asn-Thr-Val-Ser-Phe-Leu-Gln-NH2]	23.1	0.83	77.42	79.00	–	–	–	–
Ac-Thr-Gln-Asp-Pro-Ala-Glu-Asp-NH2 (Ac-TQDPAED-NH2) [SEQ ID NO: 47]	–	–	83.78	93.25	–	–	19.10	–
Thr-Gln-cyclo[Asp-Ala-Glu-Asp-Asn-Lys] (TQDAEDNK; lactam 3-8) [SEQ ID NO: 42]	–	–	80.59	85.16	–	–	25.68	–
Ac-Thr-Gln-Asp-Ala-Glu-Asp-Leu-NH2 (Ac-TQDAEDL-NH2) [SEQ ID NO: 12]	–	–	81.77	90.48	–	–	18.39	–
Ac-Ser-Gln-Asp-Ala-Glu-Asp-Asn-NH2 (Ac-SQDAEDN-NH2) [SEQ ID NO: 07]	–	–	71.66	80.71	–	–	16.42	–
Ac-Thr-Gln-Asp-Ala-Glu-Asp-Asn-Thr-Val-NH2 (Ac-TQDAEDNTV-NH2) [SEQ ID NO: 17]	–	–	71.36	74.12	–	–	29.16	–
Ac-TQDAEDNTAS-NH2 [SEQ ID NO: 24, Ac-Thr-Gln-Asp-Ala-Glu-Asp-Asn-Thr-Ala-Ser-NH2]	32.6	0.57	76.35	89.89	–	–	–	4.97
Ac-TQDPAEDN-NH2 [SEQ ID NO: 48, Ac-Thr-Gln-Asp-Pro-Ala-Glu-Asp-Asn-NH2]	29.7	–	82.97	80.57	–	–	–	–
Ac-Thr-Glu-Asp-Ala-Glu-Asp-Asn-NH2 (Ac-TEDAEDN-NH2) [SEQ ID NO: 09]	–	–	72.26	89.41	–	–	15.87	–
